These results are taken from US5576022A, “Controlled release tacrine drug delivery systems and methods for preparing same” (Warner Lambert Company, priority 1995, dated 1996).

The structures appear in SMILES notation.

Series [1] is described as follows: Single-dose 40-mg pharmacokinetics of CR1, CR2, CR6 and CR7 capsules in healthy elderly volunteers (Example 12). Type of series: in vivo, human. To be noted: all of the formulations.
From the text: The study objective was to determine the relative bioavailability and in vivo release characteristics of a 40-mg tacrine IR capsule (CR1) and three prototype 40-mg tacrine CR capsules (CR2, CR6 and CR7) to aid in the development of a tacrine controlled-release formulation. Sixteen healthy volunteers received a single 40-mg tacrine dose of CR1, CR2, CR6, or CR7 according to a randomized, 4-way crossover design (Table 6). Subjects ranged in age from 59 to 77 years (mean=67). […] Serial blood samples were drawn up to 24 hours following each dose and were subsequently analyzed for tacrine, 1-OH tacrine, 2-OH tacrine, and 4-OH tacrine.
Series [2] in a line: Single-dose 40-mg pharmacokinetics of CR1, CR3, CR4 and CR5 capsules in healthy elderly volunteers (Example 11, Protocol 970-36). To be noted: all of the formulations.
Method: Subjects ranged in age form 50 to 74 years (mean=62). None of the subjects were smokers. Serial blood samples were drawn up to 24 hours following each dose and subsequently analyzed for tacrine.
Lag-time (tlag) between dose administration and apparent start of absorption was determined as the sampling time immediately preceding time of the first quantifiable plasma concentration.
Extent of absorption was assessed by evaluation of AUC(O-tldc) values. […] Relative extent of absorption values based on AUC(O-.infin.) values were similar to those based on AUC(O-tldc).
The conditions of series [3]: background; cited from earlier work.

Take `Nc1c2c(nc3ccccc13)CCCC2O` (stereo not drawn) [1-OH tacrine]: the “Plasma 1-OH tacrine concentrations relative to tacrine” value is listed as “approximately three times higher” in series [1] and “approximately two times higher” in series [2].
For the compound `Cl.Nc1c2c(nc3ccccc13)CCCC2` [tacrine, 1,2,3,4-tetrahydro-9-acridinamine hydrochloride], in series [3], the “absorption and elimination in words” value is “rapidly absorbed and eliminated”.
